Several values for one entry are separate records, joined by “and”; a condition that tells them apart may be missing. Equal values may be shown once. Inconclusive results and toxic doses are left out. Starred links: 1 amine or outer side, 2 acyl side, 3 side chain; linkers in the order of their positions; H or OH if unused. Positions of bridges follow the written chain, without caps; N, C: chain ends. Non-standard residues stand in square brackets, D forms with d. Residues, ends and D or L forms follow the SMILES beside them. Chains are numbered I, II in the order given. Actinocin(9to1) = Cc1c2oc3c(C)ccc(C(=O)[*:1])c3nc-2c(C(=O)[*:2])c(N)c1=O; aThr = C[C@H](O)[C@H](N)C(=O)O; NMeV = CN[C@H](C(=O)O)C(C)C; Sar = CNCC(=O)O
System: DBA/2 mice, P1534 leukemia ip, survival T/C
Experiment: NCI In Vivo Anticancer Drug Screen. Data for tumor model P1534 Leukemia (intraperitoneal) in DBA/2 mice
Conditions: endpoint: mean survival time, higher = longer survival
Experimental: The antitumor activity of compounds was measured in mice bearing transplantable tumors. Survival or tumor size were measured and the results are expressed as the measurement made in the treated group (T) divided by the measurement made in the vehicle treated control group (C). The tumor model used in this assay is P1534 Leukemia (intraperitoneal) in DBA/2 mice

[1] = dose: 0.5 mg/kg/injection, schedule: Q01DX010 (ip), vehicle: saline
[2] = dose: 1.0 mg/kg/injection, schedule: Q01DX010 (ip), vehicle: saline
[3] = dose: 31.3 mg/kg/injection, schedule: Q01DX010 (ip), vehicle: saline
[4] = dose: 62.5 mg/kg/injection, schedule: Q01DX010 (ip), vehicle: saline
[5] = dose: 125.0 mg/kg/injection, schedule: Q01DX010 (ip), vehicle: saline
[6] = dose: 10.0 mg/kg/injection, schedule: Q01DX010 (ip), vehicle: saline
[7] = dose: 20.0 mg/kg/injection, schedule: Q01DX010 (ip), vehicle: saline
[8] = dose: 40.0 mg/kg/injection, schedule: Q01DX010 (ip), vehicle: saline
[9] = dose: 100.0 mg/kg/injection, schedule: Q01DX010 (ip), vehicle: saline
[10] = dose: 5.0 mg/kg/injection, schedule: Q01DX010 (ip), vehicle: saline
[11] = dose: 2.5 mg/kg/injection, schedule: Q01DX010 (ip), vehicle: saline
[12] = dose: 50.0 mg/kg/injection, schedule: Q01DX010 (ip), vehicle: saline
[13] = dose: 200.0 mg/kg/injection, schedule: Q01DX010 (ip), vehicle: saline

For CCC(=O)NC1=C(N2CC2)C(=O)C(NC(=O)CC)=C(N2CC2)C1=O, the T/C (dose: 0.13 mg/kg/injection, schedule: Q01DX010 (ip), vehicle: saline) was 108 % of control, the T/C (dose: 0.25 mg/kg/injection, schedule: Q01DX010 (ip), vehicle: saline) was 108 % of control and the T/C [1] was 100 % of control. For the same molecule, the T/C [2] was 112 % of control.

In the case of O=C1CCC(N2C(=O)c3ccccc3C2=O)C(=O)N1 (configuration not stated), the T/C [3] is reported as 100 % of control, the T/C [4] is reported as 96 % of control and the T/C [5] is reported as 96 % of control. For the same molecule, the T/C (dose: 250.0 mg/kg/injection, schedule: Q01DX010 (ip), vehicle: saline) was 96 % of control.

CCN(CC)CCNc1ccc(C)c2sc3ccccc3c(=O)c12 was tested, and the T/C [6] was 108 % of control, the T/C [7] was 108 % of control and the T/C [8] was 112 % of control. The T/C (dose: 80.0 mg/kg/injection, schedule: Q01DX010 (ip), vehicle: saline) was 100 % of control.

In the case of CC(=O)[C@H]1CC[C@H]2[C@@H]3C[C@H](C)C4=CC(=O)CC[C@]4(C)[C@H]3C(=O)C[C@]12C, the T/C (dose: 6.25 mg/kg/injection, schedule: Q01DX010 (sc), vehicle: steriod suspending solution) is reported as 100 % of control, the T/C (dose: 12.5 mg/kg/injection, schedule: Q01DX010 (sc), vehicle: steriod suspending solution) is reported as 107 % of control and the T/C (dose: 25.0 mg/kg/injection, schedule: Q01DX010 (sc), vehicle: steriod suspending solution) is reported as 103 % of control. For the same molecule, the T/C (dose: 50.0 mg/kg/injection, schedule: Q01DX010 (sc), vehicle: steriod suspending solution) was 107 % of control.

With OC(CBr)C(O)C(O)C(O)CBr (configuration not stated) the T/C [9] was 100 % of control.

In the case of N=[N+]=CC(=O)OCC(N)C(=O)O (configuration not stated), the T/C [1] is reported as 94 % of control, the T/C [2] is reported as 103 % of control and 120 % of control and the T/C (dose: 2.0 mg/kg/injection, schedule: Q01DX010 (ip), vehicle: saline) is reported as 120 % of control and 123 % of control. The T/C (dose: 4.0 mg/kg/injection, schedule: Q01DX010 (ip), vehicle: saline) was 117 % of control.

For CO[C@H]1C[C@H](O[C@H]2CC[C@]3(C=O)[C@H]4CC[C@]5(C)[C@@H](C6=CC(=O)OC6)CC[C@]5(O)[C@@H]4CC[C@]3(O)C2)O[C@H](C)[C@H]1O, the T/C (dose: 1.25 mg/kg/injection, schedule: Q01DX010 (sc), vehicle: saline) was 92 % of control, the T/C (dose: 2.5 mg/kg/injection, schedule: Q01DX010 (sc), vehicle: saline) was 103 % of control and the T/C (dose: 5.0 mg/kg/injection, schedule: Q01DX010 (sc), vehicle: saline) was 92 % of control. The T/C (dose: 10.0 mg/kg/injection, schedule: Q01DX010 (sc), vehicle: saline) was 89 % of control.

In the case of N=C(N)SCc1c2ccccc2c(CSC(=N)N)c2ccccc12, the T/C [10] is reported as 100 % of control and the T/C [6] is reported as 96 % of control.

For O=c1[nH]c(=O)n(C2CC(O)C(CO)O2)cc1F (configuration not stated), the T/C [11] was 107 % of control and 111 % of control, the T/C [10] was 111 % of control and the T/C [7] was 153 % of control. For the same molecule, the T/C (dose: 37.5 mg/kg/injection, schedule: Q01DX010 (ip), vehicle: saline) was 169 % of control.

With Cc1c2oc3c(C)ccc(C(=O)N[C@@H]4C(=O)N[C@H](C(C)C)C(=O)N5CCC[C@H]5C(=O)N(C)CC(=O)N(C)[C@@H](C(C)C)C(=O)O[C@H]4C)c3nc-2c(C(=O)N[C@@H]2C(=O)N[C@H](C(C)C)C(=O)N3CCC[C@H]3C(=O)N(C)CC(=O)N(C)[C@@H](C(C)C)C(=O)O[C@H]2C)c(N)c1=O (I: [aThr][dV]P[Sar][NMeV] / II: [aThr][dV]P[Sar][NMeV]; ester I:1-I:C, II:1-II:C; linker I:N-II:N via Actinocin(9to1)) the T/C (dose: 0.02 mg/kg/injection, schedule: Q01DX010 (ip), vehicle: other) was 93 % of control, the T/C (dose: 0.03 mg/kg/injection, schedule: Q01DX010 (ip), vehicle: other) was 104 % of control and the T/C (dose: 0.03 mg/kg/injection, schedule: Q01DX010 (ip), vehicle: saline) was 97 % of control. For the same molecule, the T/C (dose: 0.06 mg/kg/injection, schedule: Q01DX010 (ip), vehicle: other) was 103 % of control and the T/C (dose: 0.06 mg/kg/injection, schedule: Q01DX010 (ip), vehicle: saline) was 100 % of control.

CN(N=O)C(=O)NC(C=O)C(O)C(O)C(O)CO (configuration not stated) was tested, and the T/C [8] was 122 % of control, the T/C (dose: 90.0 mg/kg/injection, schedule: Q01DX010 (ip), vehicle: saline) was 100 % of control and the T/C (dose: 135.0 mg/kg/injection, schedule: Q01DX010 (ip), vehicle: saline) was 86 % of control.

With CN[C@H]1CCc2cc(OC)c(OC)c(OC)c2-c2ccc(OC)c(=O)cc21 the T/C (dose: 0.63 mg/kg/injection, schedule: Q01DX010 (ip), vehicle: other) was 111 % of control and 115 % of control and the T/C (dose: 1.25 mg/kg/injection, schedule: Q01DX010 (ip), vehicle: other) was 100 % of control and 103 % of control.

Cn1cnc([N+](=O)[O-])c1Sc1nc(N)nc2nc[nH]c12 was tested, and the T/C (dose: 1.25 mg/kg/injection, schedule: Q01DX010 (ip), vehicle: saline) was 100 % of control and 108 % of control, the T/C [11] was 100 % of control and 108 % of control and the T/C [10] was 88 % of control. The T/C [6] was 88 % of control.

C[C@@H]1CC[C@@]2(NC1)O[C@H]1C[C@H]3[C@@H]4CC=C5C[C@@H](O)CC[C@]5(C)[C@H]4CC[C@]3(C)[C@H]1[C@@H]2C was tested, and the T/C (dose: 5.0 mg/kg/injection, schedule: Q01DX010 (sc), vehicle: steriod suspending solution) was 100 % of control, the T/C (dose: 10.0 mg/kg/injection, schedule: Q01DX010 (sc), vehicle: steriod suspending solution) was 106 % of control and the T/C (dose: 20.0 mg/kg/injection, schedule: Q01DX010 (sc), vehicle: steriod suspending solution) was 96 % of control. For the same molecule, the T/C (dose: 40.0 mg/kg/injection, schedule: Q01DX010 (sc), vehicle: steriod suspending solution) was 93 % of control.

Nc1ncccc1C(=O)O was tested, and the T/C [4] was 89 % of control.

In the case of [N-]=[N+]=CC(=O)NCC(=O)NN, the T/C [12] is reported as 108 % of control, the T/C [9] is reported as 100 % of control and the T/C [13] is reported as 95 % of control. The T/C (dose: 400.0 mg/kg/injection, schedule: Q01DX010 (ip), vehicle: saline) was 91 % of control.

With Cn1c(N)nc2nc[nH]c2c1=S the T/C [10] was 100 % of control, the T/C [6] was 100 % of control and the T/C [7] was 100 % of control. For the same molecule, the T/C [8] was 100 % of control.

With C[C@]12CCC(=O)C[C@H]1CC[C@@H]1[C@@H]2CC[C@@]2(C)[C@H]1CC[C@]2(C)O the T/C (dose: 50.0 mg/kg/injection, schedule: Q01DX010 (sc), vehicle: saline) was 104 % of control, the T/C (dose: 100.0 mg/kg/injection, schedule: Q01DX010 (sc), vehicle: saline) was 100 % of control and the T/C (dose: 200.0 mg/kg/injection, schedule: Q01DX010 (sc), vehicle: saline) was 100 % of control. For the same molecule, the T/C (dose: 400.0 mg/kg/injection, schedule: Q01DX010 (sc), vehicle: saline) was 108 % of control.

O=c1cnn(C2OC(CO)C(O)C2O)c(=O)[nH]1 (configuration not stated) was tested, and the T/C [12] was 103 % of control and 117 % of control, the T/C [9] was 96 % of control and 113 % of control and the T/C [13] was 91 % of control and 108 % of control.

With Clc1ccc(C(c2ccccc2Cl)C(Cl)Cl)cc1 (configuration not stated) the T/C (dose: 62.5 mg/kg/injection, schedule: Q01DX010 (sc), vehicle: steriod suspending solution) was 100 % of control, the T/C (dose: 125.0 mg/kg/injection, schedule: Q01DX010 (sc), vehicle: steriod suspending solution) was 100 % of control and the T/C (dose: 250.0 mg/kg/injection, schedule: Q01DX010 (sc), vehicle: steriod suspending solution) was 96 % of control and 100 % of control. The T/C (dose: 500.0 mg/kg/injection, schedule: Q01DX010 (sc), vehicle: steriod suspending solution) was 100 % of control.

C[C@@H](N)[C@@H](O)c1ccccc1 was tested, and the T/C (dose: 3.13 mg/kg/injection, schedule: Q01DX010 (ip), vehicle: saline) was 96 % of control.

For O=C(Nc1ccc(C2=NCCN2)cc1)c1cccc(C(=O)Nc2ccc(C3=NCCN3)cc2)c1, the T/C (dose: 8.0 mg/kg/injection, schedule: Q01DX010 (ip), vehicle: saline) was 163 % of control, the T/C (dose: 16.0 mg/kg/injection, schedule: Q01DX010 (ip), vehicle: saline) was 177 % of control and the T/C (dose: 32.0 mg/kg/injection, schedule: Q01DX010 (ip), vehicle: saline) was 240 % of control. For the same molecule, the T/C (dose: 64.0 mg/kg/injection, schedule: Q01DX010 (ip), vehicle: saline) was 290 % of control.

With C1CCNC1 the T/C (dose: 0.19 mg/kg/injection, schedule: Q01DX010 (ip), vehicle: saline) was 93 % of control, the T/C (dose: 0.39 mg/kg/injection, schedule: Q01DX010 (ip), vehicle: saline) was 86 % of control and the T/C (dose: 1.56 mg/kg/injection, schedule: Q01DX010 (ip), vehicle: saline) was 96 % of control.

For CC[n+]1c(-c2ccccc2)c2cc(N)ccc2c2ccc(N)cc21, the T/C [10] was 113 % of control and the T/C [6] was 120 % of control.

In the case of CCOC(=O)NP(=O)(N1CC1(C)C)N1CC1(C)C (configuration not stated), the T/C [3] is reported as 107 % of control, the T/C [4] is reported as 92 % of control and the T/C [5] is reported as 103 % of control.
